In patent publication US20240002375A1, “2-(INDAZOL-5-YL)-6-(PIPERIDIN-4-YL)-1,7-NAPHTHYRIDINE DERIVATIVES AND RELATED COMPOUNDS AS MODULATORS FOR SPLICING NUCLEIC ACIDS AND FOR THE TRE” (REMIX THERAPEUTICS INC., priority 2020, published 2024):
Where two headings read alike, the source gives them in different places.

Experiments:
Format in all cases: cell-based
HTT CJ mRNA = test: Gene panel canonical junction qPCR splicing assay, HTT; conditions: Table 4, read-out: HTT IC50 (decrease in CJ mRNA levels)
Procedure, shortened: (§1)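 A673 or K562 cells treated with compound; canonical-junction mRNA measured by RT-qPCR with junction-spanning primer/probe sets, normalized to GAPDH, GUSB or PPIA and DMSO (2^−ΔΔCt). IC50 for CJ decrease from 4-parameter logistic fit of percentage response.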

HTT mRNA = test: Splicing assay (RT-qPCR) of HTT mRNA alternative junction (AJ) and canonical junction (CJ)
Procedure, shortened: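 HTT splice switching read as formation of an alternative-exon junction (AJ) versus the canonical junction (CJ) by one-step RT-qPCR on cell lysates, with GAPDH/GUSB housekeeping normalisation in K562 and PPIA in A673. Compounds: 11-point 3-fold series up to 10 uM, ≤0.25% DMSO, 24 h at 37 °C.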

SMN2 CJ mRNA = test: Gene panel canonical junction qPCR splicing assay, SMN2; conditions: Table 4, read-out: SMN2 IC50 (decrease in CJ mRNA levels)
Procedure, shortened: as §1

Target C CJ mRNA = test: Gene panel canonical junction qPCR splicing assay, Target C; conditions: Table 4, read-out: Target C IC50 (decrease in CJ mRNA levels)
Procedure, shortened: as §1

[1] = decrease in CJ mRNA, A673 or K562 cells, 24 hours, read-out: HTT CJ IC50
[2] = increase in AJ mRNA, A673 or K562 cells, 24 hours, read-out: HTT AJ AC50

| Compound | IC50 (HTT CJ mRNA) [µM] | IC50 (HTT mRNA; [1]) [nM] | IC50 (SMN2 CJ mRNA) [µM] | IC50 (Target C CJ mRNA) [µM] | AC50 (HTT mRNA; [2]) [nM] | AC50 (HTT mRNA; 24 h, read-out: HTT AJ AC50 (nM)) [nM] | IC50 (HTT mRNA; 24 h, read-out: HTT CJ IC50 (nM)) [nM] |
| --- | --- | --- | --- | --- | --- | --- | --- |
| Cn1cc2cc(-c3ccc4nc(N5CC[C@H](NC6(C)CC6)C5)ccc4n3)c(O)c(F)c2n1 (single isomer, unassigned) [Compound 222, 7-fluoro-2-methyl-5-{6-[(3 S)-3-[(1-methylcyclopropyl)amino]pyrrolidin-1-yl]-1,5-naphthyridin-2-yl}indazol-6-ol] | < 0.1 | < 100 | < 0.1 | < 0.1 | < 100 | – | – |
| CN1CCN(c2ccc3nc(-c4cc5cn(C)nc5cc4O)ccc3n2)CC1 [Compound 116, 2-methyl-5-[6-(4-methylpiperazin-1-yl)-1,5-naphthyridin-2-yl]indazol-6-ol] | 1 to 10 | 1000 to 10000 | < 0.1 | 1 to 10 | 1000 to 10000 | – | – |
| Cc1c(O)c(-c2ccc3nc(N4CC[C@@H](NC5(C)CC5)C4)ccc3n2)cc2cn(C)nc12 (single isomer, unassigned) [Compound 225] | < 0.1 | < 100 | < 0.1 | < 0.1 | < 100 | – | – |
| Cn1cc2cc(-c3ccc4nc(N5CC[C@@H](NCC(F)(F)F)C5)ccc4n3)c(O)cc2n1 (stereo in doubt) [Compound 245] | > 10 | > 10000 | 1 to 10 | > 10 | > 10000 | – | – |
| CN1CC2(C1)CN(c1ccc3nc(-c4cc5cn(C)nc5cc4O)ccc3n1)C2 [Compound 123, 2-methyl-5-(6-[6-methyl-2,6-diazaspiro[3.3]heptan-2-yl]-1,5-naphthyridin-2-yl) indazol-6-ol] | 0.1 to 1 | < 100 | < 0.1 | < 0.1 | 100 to 1000 | – | – |
| Cc1nc2cc(O)c(-c3ccc4nc(N5CC[C@@H](NC6CC6)C5)ccc4n3)cc2o1 (single isomer, unassigned) [Compound 212, 6-{6-[3-(cyclopropylamino)pyrrolidin-1-yl]-1,5-naphthyridin-2-yl}-2-methyl-1,3-benzoxazol-5-ol] | < 0.1 | < 100 | < 0.1 | 0.1 to 1 | < 100 | – | – |
| Cn1cc2cc(-c3ccc4cc(C5CCNCC5)ccc4n3)c(O)cc2n1 [Compound 109, 2-methyl-5-[6-(piperidin-4-yl)quinolin-2-yl]indazol-6-ol] | < 0.1 | < 100 | < 0.1 | 0.1 to 1 | 100 to 1000 | – | – |
| Cc1cn2nc(-c3ccc4nc(N5CCC(NC(C)(C)C)C5)ccc4n3)c(O)c2c(C)n1 (stereo not shown) [Compound 203, 2-{6-[3-(tert-butylamino)pyrrolidin-1-yl]-1,5-naphthyridin-2-yl}-4,6-dimethylpyrazolo[1,5-a]pyrazin-3-ol] | < 0.1 | < 100 | < 0.1 | < 0.1 | < 100 | – | – |
| Cc1cn2nc(-c3ccc4nc(N5CCC(NC(C)(C)C)C5)ccc4n3)cc(C)c2n1 (stereo not shown) [Compound 186, N-tert-butyl-1-(6-{2,8-dimethylimidazo[1,2-b]pyridazin-6-yl}-1,5-naphthyridin-2-yl)pyrrolidin-3-amine] | < 0.1 | – | < 0.1 | < 0.1 | – | < 100 | < 100 |
| Cn1cc2cc(-c3ccc4cc(C5CCNCC5)ccc4n3)c(O)c(F)c2n1 [Compound 241, 7-fluoro-2-methyl-5-[6-(piperidin-4-yl)quinolin-2-yl]indazol-6-ol] | < 0.1 | < 100 | < 0.1 | < 0.1 | < 100 | – | – |
| Cc1nc2c(C)c(O)c(-c3ccc4nc(N5CCC(NC6CC6)C5)ccc4n3)cc2o1 (single isomer, unassigned) [Compound 216, 6-{6-[3-(cyclopropylamino)pyrrolidin-1-yl]-1,5-naphthyridin-2-yl}-2,4-dimethyl-1,3-benzoxazol-5-ol] | < 0.1 | < 100 | < 0.1 | < 0.1 | < 100 | – | – |
| Cn1cc2cc(-c3ccc4nc(N5CCC(NC(C)(C)C)C5)ccc4n3)c(O)cc2n1 (stereo not shown) [Compound 127, 5-[6-[3-(tert-butylamino)pyrrolidin-1-yl]-1,5-naphthyridin-2-yl]-2-methylindazol-6-ol] | < 0.1 | < 100 | < 0.1 | < 0.1 | < 100 | – | – |

Second part, led by results:

| IC50 (HTT CJ mRNA) [µM] | IC50 (HTT mRNA; [1]) [nM] | IC50 (SMN2 CJ mRNA) [µM] | IC50 (Target C CJ mRNA) [µM] | Compound | AC50 (HTT mRNA; [2]) [nM] | AC50 (HTT mRNA; 24 h, read-out: HTT AJ AC50 (nM)) [nM] | IC50 (HTT mRNA; 24 h, read-out: HTT CJ IC50 (nM)) [nM] |
| --- | --- | --- | --- | --- | --- | --- | --- |
| 0.1 to 1 | 100 to 1000 | < 0.1 | 0.1 to 1 | Cc1nc2cc(O)c(-c3ccc4nc(N5CCC(N)C5)ccc4n3)cc2o1 (stereo not shown) [Compound 234, 6-[6-(3-aminopyrrolidin-1-yl)-1,5-naphthyridin-2-yl]-2-methyl-1,3-benzoxazol-5-ol] | < 100 | – | – |
| > 10 | > 10000 | 1 to 10 | > 10 | COc1cc2ccncc2cc1-c1ccc2nc(N3CCC(NC(C)(C)C)C3)ccc2n1 (stereo not shown) [Compound 161, N-tert-butyl-1-[6-(6-methoxyisoquinolin-7-yl)-1,5-naphthyridin-2-yl]pyrrolidin-3-amine] | > 10000 | – | – |
| < 0.1 | < 100 | < 0.1 | < 0.1 | Cc1nc2cc(O)c(-c3ccc4nc(N5CC[C@H](NC6(C)CC6)C5)ccc4n3)cc2o1 (single isomer, unassigned) [Compound 257, 2-methyl-6-(6-{3-[(1-methylcyclopropyl)amino]pyrrolidin-1-yl}-1,5-naphthyridin-2-yl)-1,3-benzoxazol-5-ol] | < 100 | – | – |
| > 10 | > 10000 | 1 to 10 | > 10 | Cc1nc(-c2ccc3nc(N4CCC(NC(C)(C)C)C4)ccc3n2)cc2cn(C)nc12 (stereo not shown) [Compound 208] | > 10000 | – | – |
| < 0.1 | < 100 | < 0.1 | < 0.1 | Cn1cc2cc(-c3ccc4nc(C5CCNCC5)ccc4n3)c(O)cc2n1 [Compound 100, 2-methyl-5-[6-(piperidin-4-yl)-1,5-naphthyridin-2-yl]indazol-6-ol] | 100 to 1000 | – | – |
| < 0.1 | < 100 | < 0.1 | 0.1 to 1 | Cc1nc2cc(O)c(-c3ccc4nc(N5CCC(NC6CCC6)C5)ccc4n3)cc2o1 (single isomer, unassigned) [Compound 229, 6-{6-[3-(cyclobutylamino)pyrrolidin-1-yl]-1,5-naphthyridin-2-yl}-2-methyl-1,3-benzoxazol-5-ol] | < 100 | – | – |
| < 0.1 | < 100 | < 0.1 | < 0.1 | Cn1cc2cc(-c3ccc4nc(N5CC[C@@H](NC6(C)CC6)C5)ccc4n3)c(O)c(F)c2n1 (single isomer, unassigned) [Compound 223] | < 100 | – | – |
| 1 to 10 | 1000 to 10000 | 1 to 10 | > 10 | Cn1cc2cc(-c3ccc4nc(N5CC[C@H](NCC(F)(F)F)C5)ccc4n3)c(O)cc2n1 [Compound 182, 2-methyl-5-{6-[(3S)-3-[(2,2,2-trifluoroethyl)amino]pyrrolidin-1-yl]-1,5-naphthyridin-2-yl}indazol-6-ol] | > 10000 | – | – |
| 0.1 to 1 | 100 to 1000 | < 0.1 | 1 to 10 | Cn1cc2cc(-c3ncc4nc(C5CCNCC5)ccc4n3)c(O)cc2n1 [Compound 107, 2-methyl-5-[6-(piperidin-4-yl)pyrido[3,2-d]pyrimidin-2-yl]indazol-6-ol] | 100 to 1000 | – | – |
| < 0.1 | < 100 | < 0.1 | < 0.1 | Cc1nc2c(C)c(O)c(-c3ccc4nc(N5CCC(NC6CCC6)C5)ccc4n3)cc2o1 (single isomer, unassigned) [Compound 237, 6-{6-[3-(cyclobutylamino)pyrrolidin-1-yl]-1,5-naphthyridin-2-yl}-2,4-dimethyl-1,3-benzoxazol-5-ol] | < 100 | – | – |
| > 10 | > 10000 | > 10 | > 10 | O=C(NCc1ccn[nH]1)Nc1cc2nc(N3CCNCC3)ccc2cn1 [Compound 112, 1-[2-(piperazin-1-yl)-1,6-naphthyridin-7-yl]-3-(2H-pyrazol-3-ylmethyl)urea] | > 10000 | – | – |
| 1 to 10 | > 10000 | > 10 | > 10 | Cn1cc2cc(-c3ccc4nc(N5CC(C)(C)NC(C)(C)C5)ccc4n3)c(O)cc2n1 [Compound 122, 2-methyl-5-[6-(3,3,5,5-tetramethylpiperazin-1-yl)-1,5-naphthyridin-2-yl]indazol-6-ol] | > 10000 | – | – |
| 0.1 to 1 | 100 to 1000 | < 0.1 | 1 to 10 | Cn1cc2cc(-c3ccc4nc(N5CCC6(CCN6)C5)ccc4n3)c(O)cc2n1 (stereo not shown) [Compound 178, 5-(6-{1,6-diazaspiro[3.4]octan-6-yl}-1,5-naphthyridin-2-yl)-2-methylindazol-6-ol] | 100 to 1000 | – | – |
| < 0.1 | < 100 | < 0.1 | 0.1 to 1 | CCN[C@H]1CCN(c2ccc3nc(-c4cc5cn(C)nc5cc4O)ccc3n2)C1 [Compound 179] | < 100 | – | – |
